Laboratory results published in US20110288154A1, “RNA Interference Mediated Inhibition of Epithelial Sodium Channel (ENaC) Gene Expression Using Short Interfering Nucleic Acid (siNA)” (MERCK & CO., INC., priority 2008, published 2011).

Columns and labels:
[1] = system: human ENaCα mRNA; assay: ENaCα mRNA knockdown and EC50 in human normal bronchial epithelial cells (NHBEs); type: cell-based; conditions: 48 hrs post transfection, n = 3 donors; for EC50: nine point dose range 0.01-100 nM
Experimental: Human Bronchial Epithelial cells (NHBE cells) obtained from Lonza (Cat. No. CC-2540) were grown at 37 deg in the presence of 5% CO2 and cultured in BEBM basal medium (Lonza, Cat. No. CC-3171) on Biocoat Collagenl coated flasks (Becton Dickinson).
mRNA Knockdown and EC50 in NHBEs: Cells were plated in collagen 1 coated plates and cultured in appropriate culture media. The cells were cultured for 24 hours after plating at 37 deg in the presence of 5% CO2. siNAs were diluted in OptiMEM 1 to 1 uM and the delivery lipid GSK212357A to 25 ug/ml. For formulation of the siNAs equal volumes of the diluted siNA and delivery lipid were combined and incubated for 20 minutes at room temperature. Cells were meanwhile trypsinised and resuspended in antibiotic free BEBM media at 150,000 cells/ml. 20 ul of the formulated siNA and 80 ul of BEBM media was added per well of a 96 well plate (6 replicates/data point/siRNA concentration) so as to give a nine point dose range of the siRNAs (100 nM, 30 nM, 10 nM, 3 nM, 1 nM, 0.3 nM, 0.1 nM, 0.03 nM, 0.01 nM). The time of incubation with the GSK212357A-siNA complexes were 48 hours with one change of media at 24 hours.
RNA Isolation 96 well Plate: Total RNA was isolated from the cells in the 96-well plate format using the Automated SV96 Total RNA Isolation System (Promega) according to the manufacturer's instructions. The Biomek 2000 Laboratory Automation Workstation (Beckman Coulter) was used to apply the transfected cell lysates to a silica membrane. RNase-Free DNase I was then applied directly to the silica membrane to digest contaminating genomic DNA. The bound total RNA was further purified from contaminating salts, proteins and cellular impurities by simple washing steps. Finally, total RNA was eluted from the membrane by the addition of Nuclease-Free Water.
(§1) Quantitative RT-PCR (TaqMan): A series of probes and primers were used for the detection of mRNA transcripts of ENaCα, OAS1, IL8 and GAPDH (as control/normalisation) in the human cell lines. The assays were performed on an ABI 7900HT instrument according to the manufacturer's instructions. Primer Probe sets used GAPDH Forward 5′-[…]-3 (SEQ ID NO: 128), ‘Reverse 5’-GGGCCATCCACAGTCTTCT-3′ (SEQ ID NO: 129), Probe 5′ d FAM-[…]-TAMRA 3′ (SEQ ID NO: 130), ENaCa Forward 5′-[…]-3′ (SEQ ID NO: 131), Reverse 5′-[…]-3′ (SEQ ID NO: 132), Probe 5′ d FAM-[…]-TAMRA 3′ (SEQ ID NO: 133), OAS1 Forward 5′-[…]-3′ (SEQ ID NO: 134), Reverse 5′-[…]-3′ (SEQ ID NO: 135), Probe 5′ d FAM-[…]-TAMRA 3′ (SEQ ID NO: 136), IL8 Forward 5′-CTGGCCGTGGCTCTCTTG-3′ (SEQ ID NO: 137), Reverse 5′-[…]-3′ (SEQ ID NO: 138), Probe 5′ d FAM-[…]-TAMRA 3′ (SEQ ID NO: 139).
TaqMan: Critical threshold values (Ct) were converted to copy numbers corresponding to the particular gene analysed in each well of the 384 well plate. Six identical wells were prepared in each plate for a given treatment. […] Determination of the percentage coefficient of variation (CV) (% C.V.=[standard deviation/average]*100) allowed the omitting of wells whose value was an outlier (so that % C.V.<25). Relative abundance (aka relative expression) of a gene was determined by dividing the mean copy number of that gene with its GAPDH counterpart in that particular sample.
EC50 values were calculated from the data using sigma plot. All calculations of the efficacy and potency of the siNAs were done relative to the non-targeting control siNA.

[2] = system: ENaC-alpha mRNA; assay: ENaC-alpha mRNA knockdown in recombinant HEK cells of the FLIPR assay; type: cell-based, human; conditions: n = 6, mean of 3 independent experiments
Experimental: (§2) Recombinant HEK293 cell line (expressing ENaC beta & gamma) SCNN1B (P618AY620L)+SCNN1G (P624stop) #24. were grown at 37 deg in the presence of CO2 and were cultured in M1 medium M1+0.5 mg/ml geneticin and 0.2 mg/ml hygromycin.
(§3) Functional Effects on ENaC via FLIPR in Cells Over Expressing ENaCa: A reverse transfection methodology was used to transfect the HEK recombinant cell line. 5 ul of siRNA (diluted in Optimem to the appropriate concentration) was mixed with 5 ul of the Gemini lipid transfection reagent diluted in Optimem in 384 well non-coated FLIPR plate. Plates were incubated at room temperature for 20 minutes to allow complex formation. Cells were harvested, spun down, diluted to 3×10^5/ml and plated out at 40 ul/well (12K/well) in 384 well plate format containing the transfection complex. The plates were incubated overnight for 20 hours. The cells were then transduced with BacMam virus expressing ENaC alpha (BacMam viruses expressing SCNN1A, GRITS 29703, titre 0.356×10^8/ml). 30 ul of virus was added (1.7%) 20K/well, MOI was approximately 1. Cells were incubated for 24 hours. On day of the FLIPR assay, media was aspirated, leaving 10 ul volume. 20 ul of dye per well was loaded (FMP2 Blue dye, R8181, MDS. For each pot, 133 ml Tyrodes buffer was diluted to make 1× stock prior to assay). The plate was incubated for 0.5 hours at room temperature and 10 ul of the compound added on-line prior to FLIPR read (FLIPR settings: protocol Na MP.fcf, with Exposure length 0.4 sec and Filter #2). Compound plate: 1 ul volume, column 1, 2 and 3 are 16, 4 and 0 uM amiloride final (1/200 dilution) (IC80, IC50 and ctrl).
RNA isolation 384 well Plate: Extract mRNA using Qiagen Turbo Capture RNA preparation kit, following manufacturer's instructions.
as §1

[3] = system: ENaC; assay: FLIPR assay of sodium transport in recombinant HEK cells over expressing ENaC; type: cell-based, human; conditions: FLIPR, n = 6, mean of 3 independent experiments
Experimental: as §2, §3

[4] = final siNA concentration 100 nM

Substance	Maximum mRNA knockdown NHBEs [1]	EC50 [1]	% ENaC-alpha mRNA knockdown ([2]; final siNA concentration 10 nM)	% ENaC-alpha mRNA knockdown ([2]; final siNA concentration 20 nM)	% ENaC-alpha mRNA knockdown ([2]; final siNA concentration 50 nM)	% ENaC-alpha mRNA knockdown [2, 4]	% Inhibition of Maximal Response (4 uM amiloride) ([3]; final siNA concentration 10 nM)	% Inhibition of Maximal Response (16 uM amiloride) ([3]; final siNA concentration 10 nM)	% Inhibition of Maximal Response (4 uM amiloride) ([3]; final siNA concentration 20 nM)	% Inhibition of Maximal Response (16 uM amiloride) ([3]; final siNA concentration 20 nM)	% Inhibition of Maximal Response (4 uM amiloride) ([3]; final siNA concentration 50 nM)	% Inhibition of Maximal Response (16 uM amiloride) ([3]; final siNA concentration 50 nM)	% Inhibition of Maximal Response (4 uM amiloride) [3, 4]	% Inhibition of Maximal Response (16 uM amiloride) [3, 4]
B GcuGuGccuAcAucuucuA TTB / UAGAAGAuGuAGGcAcAGcUU (sense GCUGUGCCUACAUCUUCUATT; antisense UAGAAGAUGUAGGCACAGCUU; siRNA; B caps on sense ends, letter-case modifications not given here, further chemistry not given here) [Site 1388]	79%	4.2 nM												
B GuGuGGcuGuGccuAcAuc TTB / GAUGuAGGcAcAGccAcAcUU (sense GUGUGGCUGUGCCUACAUCTT; antisense GAUGUAGGCACAGCCACACUU; siRNA; B caps on sense ends, letter-case modifications not given here, further chemistry not given here) [Site 1383]	64%	4.9 nM												
B uGuGcAAccAGAAcAAAuc TTB / GAUuuGuucuGGuuGcAcAUU (chain 1 UGUGCAACCAGAACAAAUCTT; chain 2 GAUUUGUUCUGGUUGCACAUU; siRNA; B caps on sense ends, letter-case modifications not given here, further chemistry not given here) [Site 782]	79%	0.47 nM	61.7%	67.7%	75.1%	73.1%	37.1%	40.8%	41.4%	47.9%	52.5%	59.7%	81.5%	85.2%
B uuAuGGAuGAuGGuGGcuu TTB / AAGccAccAucAuccAuAAUU (sense UUAUGGAUGAUGGUGGCUUTT; antisense AAGCCACCAUCAUCCAUAAUU; siRNA; B caps on sense ends, letter-case modifications not given here, further chemistry not given here) [Site 1181]	78%	1.59 nM	52.6%	65.6%	76.1%	76.9%	43.8%	45.8%	48.9%	51.4%	62.2%	65.5%	77.5%	77.5%
